Reference: ChEMBL document CHEMBL1130123, “Optimization of 3-(1H-indazol-3-ylmethyl)-1,5-benzodiazepines as potent, orally active CCK-A agonists” (J Med Chem, 1997)

Assays:
[1] = Total body clearance at an intravenous dose of 5.2 mg/kg in rat; assay type: ADME, organism-based; design: dose 5.2 mg/kg, route intravenous; details: in vivo
[2] = Volume of distribution at steady state at an intravenous dose of 5.2 mg/kg in rat; assay type: ADME, organism-based; design: dose 5.2 mg/kg, route intravenous; details: in vivo, read-out: Vss
[3] = Maximum concentration at an intraduodenal dose of 5.2 mg/kg in rat; assay type: ADME, organism-based; design: dose 5.2 mg/kg, route intraduodenal; details: in vivo
[4] = Oral bioavailability in Long-Evans rats at an intraduodenal dose of 5.2 mg/kg; assay type: ADME, organism-based; details: rat, in vivo, other: intraduodenal
Mus musculus = test: Maximal response at 1 nmol/kg peroral dose; assay type: functional
[5] = Oral bioavailability in Long-Evans rats at an intravenous dose of 5.2 mg/kg; Not active; assay type: ADME, organism-based; details: rat, in vivo
[6] = Maximum concentration at an intravenous dose of 5.2 mg/kg; assay type: ADME, organism-based; design: dose 5.2 mg/kg, route intravenous; details: rat, in vivo
[7] = Half life period at an intravenous dose of 5.2 mg/kg in rat; assay type: ADME, organism-based; design: dose 5.2 mg/kg, route intravenous; details: in vivo

Structure (SMILES): COc1ccc(N(C(=O)CN2C(=O)C(C)(Cc3n[nH]c4ccccc34)C(=O)N(c3ccccc3)c3ccccc32)C(C)C)cc1 (stereo not drawn)
- clearance [1]: 30 mL/min/kg
- Vd [2]: 4.31 L/kg
- Cmax [3]: 30 ng/mL
- bioavailability [4]: 15%
- Max (Mus musculus): 28%
- F [5]: Not Active
- Cmax [6]: 3390 ng/mL
- half-life [7]: 3.9 h
